Patent publication US20030215472A1, “Methods and compositions employing a dialkyl amide” (priority 2002, published 2003)

Legend:
human skin = test: Irritation and sensitization of human skin; assay type: in vivo; details: at levels effective for suppressing malodor formation
[1] = Solubility in cosmetic solvents; assay type: physicochemical
[2] = test system: Micrococcus luteus ATCC #10240; test: MIC via Zone of Inhibition testing, M. luteus; assay type: cell-based
Procedure: (§1) For culture preparation, an overnight Tryptic Soy Agar (TSA) culture was grown with M. luteus ATCC #10240. This culture was washed and diluted with saline to 85% transmittance at 530 nm. An overnight anaerobic culture of P. acnes ATCC#11827 was prepared in Brain Heart Infusion Broth (BHIB). This was washed with saline and diluted to 85% transmittance at 530 nm. An overnight aerobic culture of C. xerosis ATCC#373 was also grown in BHIB, washed with saline and diluted to 85% transmittance at 530 nm. These cultures were used as inocula. Three sets of nine different dilutions of sample were prepared for MIC results using TSA or BHIB as follows: (1) 2.0 grams sample+8.0 mL media=1:5 or 20%; (2) 2.0 mL of #1+8.0 mL media=1:25 or 4%; (3) 2.0 mL of #2+8.0 mL media=1:125 or 0.8%; (4) 2.0 mL of #3+8.0 mL media=1:625 or 0.16%; (5) 2.0 mL of #4+8.0 mL media=1:3125 or 0.032%; (6) 2.0 mL of #5+8.0 mL media=1:15625 or 0.0064%; (7) 2.0 mL of #6+8.0 mL media=1:78125 or 0.00128%; (8) 2.0 mL of #7+8.0 mL media=1:390625 or 0.000256%; and (9) 2.0 mL of #8+8.0 mL media=1:1953125 or 0.0000512%.
(§2) The product dilutions were dispensed onto Zone of Inhibition plates. TSA and BHIB plates were prepared by using the base and seed method. Seed consisted of 2.0 mL of inoculum per 20.0 mL of TSA or BHIB used. A single penicylinder placed in the center of the plate when agar was solidified. Each penicylinder was inoculated with 200 μL of the MIC dilutions listed above; this procedure was performed in duplicate. Control plates were performed simultaneously; also using the base and seed method. M. luteus plates were incubated for 48 hours at 30° C. to 35° C. P. acnes plates were incubated for 5-7 days 36° C. to 38° C. anaerobically, C. xerosis plates were incubated aerobically at 36° C. to 38° C. Plates were measured for zones and calculated in millimeters.
For MLC Preparation, swabbing of the zones was performed to calculate MLC results. […] These swabs were then placed in TSA or BHIB for incubation. […] MLC results are recorded as positive or negative for growth.

[3] = test system: Micrococcus luteus ATCC #10240; test: MLC by swabbing of the zones, M. luteus; assay type: cell-based; set-up: key: (+): MLC results are recorded as positive or negative for growth; (−): MLC results are recorded as positive or negative for growth
Procedure: (§3) For MLC Preparation, swabbing of the zones was performed to calculate MLC results. […] These swabs were then placed in TSA or BHIB for incubation. M. luteus tubes were incubated for 48 hours at 30° C. to 35° C. P. acnes tubes were incubated for 5-7 days at 35° C. to 38° C. anaerobically, C. xerosis tubes were incubated aerobically at 36° C. to 38° C. Tubes were inspected visually for growth and indicated below. Numbers indicate the average of the zone sizes on the two plates (in millimeters) as per MIC dilution. MLC results are recorded as positive or negative for growth.

P. acnes ATCC#11827 [4] = test: MLC by swabbing of the zones, P. acnes; assay type: cell-based, Propoinibacterium acnes; set-up: key: (+): MLC results are recorded as positive or negative for growth; (−): MLC results are recorded as positive or negative for growth
Procedure: as §3

C. xerosis ATCC#373 [5] = test: MIC via Zone of Inhibition testing, C. xerosis; assay type: cell-based, Corynebacterium xerosis
Procedure: as §1, §2, §3

gram-positive bacteria = test: Killing and suppressing gram-positive bacteria; assay type: cell-based
P. acnes ATCC#11827 [6] = test: MIC via Zone of Inhibition testing, P. acnes; assay type: cell-based, Propoinibacterium acnes
Procedure: as §1, §2, §3

C. xerosis ATCC#373 [7] = test: MLC by swabbing of the zones, C. xerosis; assay type: cell-based, Corynebacterium xerosis; set-up: key: (+): MLC results are recorded as positive or negative for growth; (−): MLC results are recorded as positive or negative for growth
Procedure: as §3

CCCCCCCCCC(=O)N(C)C [dimethyl capramide, N,N-dimethyldecanamide]
irritation of human skin (human skin): non-irritating | solubility ([1]; in cyclomethicone): greater than 50 wt. % | solubility ([1]; in propylene glycol): greater than 50 wt. % | MIC/Zone of Inhibition, average zone size ([2]; dilution 1:5 (20%)): 14.7 millimeters | MIC/Zone of Inhibition, average zone size ([2]; dilution 1:25 (4%)): 14.2 millimeters | MIC/Zone of Inhibition, average zone size ([2]; dilution 1:125 (0.8%)): 13.6 millimeters | MLC Results, growth from swabbed zone ([3]; dilution 1:5 (20%)): (−) | MLC Results, growth from swabbed zone ([3]; dilution 1:25 (4%)): (+) | MLC Results, growth from swabbed zone ([3]; dilution 1:125 (0.8%)): (+) | MLC Results, growth from swabbed zone (P. acnes ATCC#11827 [4]; dilution 1:5 (20%)): (−) | MLC Results, growth from swabbed zone (P. acnes ATCC#11827 [4]; dilution 1:25 (4%)): (−) | MLC Results, growth from swabbed zone (P. acnes ATCC#11827 [4]; dilution 1:125 (0.8%)): (+) | MLC Results, growth from swabbed zone (P. acnes ATCC#11827 [4]; dilution 1:625 (0.16%)): (+) | MIC/Zone of Inhibition, average zone size (C. xerosis ATCC#373 [5]; dilution 1:5 (20%)): 20.2 millimeters | MIC/Zone of Inhibition, average zone size (C. xerosis ATCC#373 [5]; dilution 1:25 (4%)): 13.9 millimeters | MIC/Zone of Inhibition, average zone size (C. xerosis ATCC#373 [5]; dilution 1:125 (0.8%)): 17.3 millimeters | MIC/Zone of Inhibition, average zone size (C. xerosis ATCC#373 [5]; dilution 1:625 (0.16%)): 8.6 millimeters | MIC/Zone of Inhibition, average zone size (C. xerosis ATCC#373 [5]; dilution 1:3125 (0.032%)): 7.2 millimeters | killing and suppressing gram-positive bacteria (gram-positive bacteria): effective in killing and suppressing | MIC/Zone of Inhibition, average zone size (P. acnes ATCC#11827 [6]; dilution 1:5 (20%)): 21.2 millimeters | MIC/Zone of Inhibition, average zone size (P. acnes ATCC#11827 [6]; dilution 1:25 (4%)): 23.8 millimeters | MIC/Zone of Inhibition, average zone size (P. acnes ATCC#11827 [6]; dilution 1:125 (0.8%)): 18.0 millimeters | MIC/Zone of Inhibition, average zone size (P. acnes ATCC#11827 [6]; dilution 1:625 (0.16%)): 8.1 millimeters | MLC Results, growth from swabbed zone (C. xerosis ATCC#373 [7]; dilution 1:5 (20%)): (−) | MLC Results, growth from swabbed zone (C. xerosis ATCC#373 [7]; dilution 1:25 (4%)): (−) | MLC Results, growth from swabbed zone (C. xerosis ATCC#373 [7]; dilution 1:125 (0.8%)): (−) | MLC Results, growth from swabbed zone (C. xerosis ATCC#373 [7]; dilution 1:625 (0.16%)): (+) | MLC Results, growth from swabbed zone (C. xerosis ATCC#373 [7]; dilution 1:3125 (0.032%)): (+)
